Measured values reported in paper PMC5335563, “Proline dehydrogenase from Thermus thermophilus does not discriminate between FAD and FMN as cofactor” (Scientific Reports, 2017).

What was measured:
[1] = biological target: T1, MBP-TtProDH EE (apo-EE, reconstituted apo-EE) (Thermus thermophilus, UniProt Q72IB8, F10E/L12E, form not given); test: flavin fluorescence quenching titration; type: binding; conditions: 50 mM sodium phosphate, pH 7.4
T1 construct: gene TT_C1214; N-terminal MBP fusion kept; variant EE (F10E/L12E); E. coli BSV11 riboflavin auxotroph, apo form

[2] = biological target: T1, MBP-TtProDH EE (apo-EE, reconstituted apo-EE); test: flavin fluorescence quenching titration; conditions: very weak binding, data not shown; 200 nM riboflavin; 50 mM sodium phosphate, pH 7.4

T1 sequence (Q72IB8 whole entry F10E/L12E, form open, the tested form may be a part): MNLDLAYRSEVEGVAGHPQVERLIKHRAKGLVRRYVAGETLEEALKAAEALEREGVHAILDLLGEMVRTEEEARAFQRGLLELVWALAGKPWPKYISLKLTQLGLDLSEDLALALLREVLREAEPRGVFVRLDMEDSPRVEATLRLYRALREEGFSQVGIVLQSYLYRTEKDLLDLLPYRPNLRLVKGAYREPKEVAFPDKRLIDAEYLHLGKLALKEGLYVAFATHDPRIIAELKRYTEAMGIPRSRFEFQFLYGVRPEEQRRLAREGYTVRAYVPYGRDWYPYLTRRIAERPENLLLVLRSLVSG

**Q.** For Cc1cc2nc3c(=O)[nH]c(=O)nc-3n(C[C@H](O)[C@H](O)[C@H](O)COP(=O)(O)OP(=O)(O)OC[C@H]3O[C@@H](n4cnc5c(N)ncnc54)[C@H](O)[C@@H]3O)c2cc1C [FAD], which Kd ([1]; apoenzyme titrated into 200 nM FAD) is on record?
**A.** Its Kd is 18 ± 0.5 nM.

**Q.** For Cc1cc2nc3c(=O)[nH]c(=O)nc-3n(C[C@H](O)[C@H](O)[C@H](O)COP(=O)(O)O)c2cc1C [FMN], which Kd ([1]; apoenzyme titrated into 200 nM FMN) is on record?
**A.** The Kd was 19.5 ± 0.8 nM.

**Q.** Cc1cc2nc3c(=O)[nH]c(=O)nc-3n(C[C@H](O)[C@H](O)[C@H](O)CO)c2cc1C [riboflavin] was tested. Which “flavin fluorescence quenching titration” value [2] did it give?
**A.** The value was “riboflavin shows a very weak binding to the apoenzyme (data not shown)”.
